# Measured values published in article PMC4257618, “Structures of Plasmodium vivax serine hydroxymethyltransferase: implications for ligand-binding specificity and functional control” (Acta Crystallographica Section D: Biological Crystallography, 2014).
# Key:
# [1] = molecular target: T1, serine hydroxymethyltransferase (PvSHMT) (Plasmodium vivax, UniProt A5K8L9); assay: X-ray crystal structure at […] Å; also […] inhibition at […] in SHMT–MTHFD coupled assay; type: binding; conditions: read-out: % inhibition at 1.55 mM
# T1 construct: gene PVX_100730
# T1 sequence (A5K8L9 1-442): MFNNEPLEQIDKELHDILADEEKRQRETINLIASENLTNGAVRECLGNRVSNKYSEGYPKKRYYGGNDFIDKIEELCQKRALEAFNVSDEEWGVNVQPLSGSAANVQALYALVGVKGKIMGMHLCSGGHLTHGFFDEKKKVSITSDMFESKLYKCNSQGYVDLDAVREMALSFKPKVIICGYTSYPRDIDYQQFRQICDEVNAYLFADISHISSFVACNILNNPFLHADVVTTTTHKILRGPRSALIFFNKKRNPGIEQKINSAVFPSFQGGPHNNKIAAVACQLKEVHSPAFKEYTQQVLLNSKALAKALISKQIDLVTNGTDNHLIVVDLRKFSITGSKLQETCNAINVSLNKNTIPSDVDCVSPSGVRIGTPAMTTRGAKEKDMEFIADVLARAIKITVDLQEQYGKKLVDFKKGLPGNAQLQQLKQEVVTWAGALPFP
# [2] = molecular target: T1, serine hydroxymethyltransferase (PvSHMT); assay: SHMT–MTHFD coupled enzyme assay (L-Ser–THF); quinonoid formation with D-Ser by absorbance; type: biochemical
# [3] = molecular target: T1, serine hydroxymethyltransferase (PvSHMT); assay: X-ray crystal structure at […] Å; type: binding
# [4] = molecular target: T1, serine hydroxymethyltransferase (PvSHMT); assay: X-ray crystal structure at […] Å; type: binding; remark: listed apart in the source
smiles,measurement,setting,value
"Nc1nc(=O)c2c([nH]1)NC[C@@H](CNc1ccc(C(=O)N[C@@H](CCC(=O)O)C(=O)O)cc1)N2C=O (racemic) [(6R)-5FTHF, (6R)-5-formyltetrahydrofolate]",inhibition at 1550 µM,[1],30%
"Nc1nc(=O)c2c([nH]1)NC[C@H](CNc1ccc(C(=O)N[C@@H](CCC(=O)O)C(=O)O)cc1)N2C=O [(6S)-5FTHF, (6S)-5-formyltetrahydrofolate]",Ki,[2],210 µM
"N[C@@H](CO)C(=O)O [L-Ser, L-serine]",X-ray crystal structure at 2.5 Å,[3],4pfn for the PLP–L-Ser external aldimine
"Cc1ncc(COP(=O)(O)O)c(C=O)c1O [PLP, pyridoxal-5′-phosphate]",X-ray crystal structure at 2.3 Å,[4],4pff for the PLP internal aldimine
